Measured values reported in patent US9981942B2, “Piperidine derivatives having multimodal activity against pain” (LABORATORIOS DEL DR. ESTEVE S.A., priority 2013, dated 2018).

Biological target: σ1 receptor and the μ-opiod receptor
Assay: μ and σ1 dual binding: combined class from the Ki of both radioligand assays
Design: species or system human; key to μ and σ1 dual binding: +: Both Ki-μ and Ki-σ1>=500 nM; ++: One Ki<500 nM while the other Ki is >=500 nM; +++: Both Ki-μ and Ki-σ1<500 nM; ++++: Both Ki-μ and Ki-σ1<100 nM
Conditions: transfected HEK-293 membranes (σ1), transfected CHO-K1 cell membranes (μ); for μ and σ1 dual binding: combined class for Ki-μ and Ki-σ1
Summary of the method: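 Classes combine both Ki values, split at 500 nM and 100 nM. Human μ-opioid binding used 1 nM [3H]-DAMGO on CHO-K1 membranes (27 °C, 60 min, pH 7.4, naloxone 10 μM for NSB); human σ1 used 5 nM [3H](+)-pentazocine on HEK-293 membranes (37 °C, 120 min, pH 8, haloperidol 10 μM for NSB).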

Row | Compound | Ki range for both μ and σ1 (dual-binding class) [nM] | μ and σ1 dual binding
1 | Oc1cccc(C2CCN(Cc3cn(-c4cc(F)ccc4F)nn3)CC2)c1 [Example 223, 3-(1-((1-(2,5-difluorophenyl)-1H-1,2,3-triazol-4-yl)methyl)piperidin-4-yl)phenol] | < 100 | 
2 | Cc1ccc(F)c(-n2cc(CN3CCC(c4cccc(O)c4)CC3)nn2)c1 [Example 224, 3-(1-((1-(2-fluoro-5-methylphenyl)-1H-1,2,3-triazol-4-yl)methyl)piperidin-4-yl)phenol] | < 100 | 
3 | c1ccc(-n2cc(CN3CCC(c4cccc(Nc5nccs5)c4)CC3)nn2)cc1 [Example 225, N-(3-(1-((1-phenyl-1H-1,2,3-triazo1-4-yl)methyl)piperidin-4-yl)phenyl)thiazol-2-amine] | < 100 | 
4 | Oc1cccc(C2CCN(Cc3cn(-c4ccc(C(F)(F)F)cc4F)nn3)CC2)c1 [Example 226, 3-(1-((1-(2-fluoro-4-(trifluoromethyl)phenyl)-1H-1,2,3-triazol-4-yl)methyl)piperidin-4-yl)phenol] | < 100 | 
5 | O=S(=O)(Nc1cccc(C2CCN(Cc3cn(-c4ccccc4F)nn3)CC2)n1)C1CC1 [Example 228, N-(6-(1-((1-(2-fluorophenyl)-1H-1,2,3-triazol-4-yl)methyl)piperidin-4-yl)pyridin-2-yl)cyclopropanesulfonamid] | < 500 | 
6 | c1ccc(Cn2cc(CN3CCC(c4cccc(Nc5nccs5)c4)CC3)nn2)nc1 [Example 229, N-(3-(1-((1-(pyridin-2-ylmethyl)-1H-1,2,3-triazol-4-yl)methyl)piperidin-4-yl)phenyl)thiazol-2-amine] | < 500 | 
7 | c1ccc(Cn2cc(CN3CCC(c4cccc(Nc5nccs5)n4)CC3)nn2)nc1 [Example 230, N-(6-(1-((1-(pyridin-2-ylmethyl)-1H-1,2,3-triazol-4-yl)methyl)piperidin-4-yl)pyridin-2-yl)thiazol-2-amine] |  | ++
8 | c1ccc(Cn2cc(CN3CCC(c4cccc(Nc5ccccn5)c4)CC3)nn2)nc1 [Example 231, N-(3-(1-((1-(pyridin-2-ylmethyl)-1H-1,2,3-triazol-4-yl)methyl)piperidin-4-yl)phenyl)pyridin-2-amine] |  | ++
9 | Fc1ccc(Nc2cccc(C3CCN(Cc4cn(Cc5ccccn5)nn4)CC3)c2)nc1 [Example 232, 5-fluoro-N-(3-(1-((1-(pyridin-2-ylmethyl)-1H-1,2,3-triazol-4-yl)methyl)piperidin-4-yl)phenyl)pyridin-2-amine] | < 500 | 
10 | Cc1ccc2cc(-n3cc(CN4CCC(c5cccc(O)c5)CC4)nn3)ccc2n1 [Example 233, 3-(1-((1-(2-methylquinolin-6-yl)-1H-1,2,3-triazol-4-yl)methyl)piperidin-4-yl)phenol] | < 500 | 
